From BindingDB's records for doi:10.7270/Q21R6P59 (German University In Cairo, 2011) come the findings set out here.

The test has as its target cGMP-specific 3',5'-cyclic phosphodiesterase (Homo sapiens, UniProt O76074). Briefly: Phosphodiesterase Inhibition Assay. How it is done:
PDE activity was measured using a modification of the IMAP fluorescence polarization phosphodiesterase assay from Molecular Devices. The assay was modified to use tetramethylrhodamine (TAMRA-) cGMP as substrate. PDE hydrolysis of the fluorescent labeled substrate allows it to bind the IMAP binding reagent, which results in increased FP.

What is called IC50 is the point on the concentration scale where inhibition reaches its midpoint. Take `COc1ccc([C@H]2c3[nH]c4ccccc4c3Cc3c(O)n(C(C)(C)C)c(=O)n32)c(OC)c1` [PDE5 Inhibitor, 9]: the IC50 is 2400 nM.

`CCn1c(O)c2n(c1=O)[C@H](c1ccc(OC)cc1OC)c1[nH]c3ccccc3c1C2` [PDE5 Inhibitor, 8] displayed an IC50 of 360 nM. In turn, `COc1ccc([C@@H]2c3[nH]c4ccccc4c3Cc3c(O)n(C(C)(C)C)c(=O)n32)c(OC)c1` [PDE5 Inhibitor, 12] had an IC50 of 550 nM.

The compound `C=CCn1c(O)c2n(c1=S)[C@H](c1ccc(OC)cc1OC)c1[nH]c3ccccc3c1C2` [PDE5 Inhibitor, 19] came in with an IC50 of 560 nM.

With `COC(=O)[C@@H]1Cc2c([nH]c3ccccc23)[C@H](c2ccc(OC)cc2OC)N1` [PDE5 Inhibitor, 4], the IC50 is 6400 nM.

As for `CCn1c(O)c2n(c1=O)[C@@H](c1ccc(OC)cc1OC)c1[nH]c3ccccc3c1C2` [PDE5 Inhibitor, 6], the IC50 is 720 nM.
